Measurements as given in ChEMBL document CHEMBL6134860, “Discovery and optimization of a novel carboxamide scaffold with selective antimalarial activity” (Eur J Med Chem, 2025).
≈ marks a conversion by molar mass, not a printed value.

Assays:
[1] = Cytotoxicity against human HepG2 cells measured after 72 hrs by hoechst 33342 staining based imaging assay; assay type: toxicity, cell-based
[2] = system: Plasmodium falciparum; assay: microbe, parasite or virus in culture; assay type: functional, organism-based; conditions: W2, 72 h
[3] = Metabolic stability in rat hepatocytes assessed as apparent intrinsic clearance measured per 10^6 cells
[4] = Metabolic stability in human liver microsomes assessed as apparent intrinsic clearance
[5] = Metabolic stability in human liver microsomes assessed as half life
[6] = Metabolic stability in rat hepatocytes assessed as half life
[7] = Lipophilicity, logD of compound at pH 7.4; conditions: buffer
[8] = system: Plasmodium falciparum; assay: microbe, parasite or virus in culture; assay type: functional, organism-based; conditions: C235, 72 h
[9] = system: Plasmodium falciparum; assay: microbe, parasite or virus in culture; assay type: functional, organism-based; conditions: D6, 72 h
[10] = system: Plasmodium falciparum; assay: microbe, parasite or virus in culture; assay type: functional, organism-based; conditions: C2B, 72 h
[11] = system: Plasmodium falciparum; assay: microbe, parasite or virus in culture; assay type: functional, organism-based; conditions: 3D7, 72 h
[12] = Aqueous solubility of compound at pH 7.4; conditions: buffer
[13] = system: Plasmodium falciparum; assay: Antiplasmodial activity against Plasmodium falciparum strain NF54 assessed as 99% parasite clearance time in presence of 2% haematocrit and 0.5 % parasitemia at 10 times EC50 followed by media with compound exchanged daily measured after 2 weeks by standard hypoxanthine assay; assay type: functional

Cc1ccc(N(C)C(=O)c2ncn(-c3ccc(C(C)C)cc3)n2)cc1
CC50 at 72 h ([1]; read-out: CC50): > 10000 nM | CC50 at 72 h ([1]; read-out: pCC50 (converted)): > 10000 nM | EC50 ([2]; read-out: pEC50 (converted)): 741 nM

COc1ccc(N(C)C(=O)c2ncn(-c3ccc(C(C)C)cc3)n2)cc1
CC50 at 72 h ([1]; read-out: CC50): > 10000 nM | CC50 at 72 h ([1]; read-out: pCC50 (converted)): > 10000 nM | EC50 ([2]; read-out: pEC50 (converted)): 1620 nM

Cc1ccc(-c2ccnc(C(=O)N(C)c3ccc(Cl)cc3)c2)cc1
CC50 at 72 h ([1]; read-out: CC50): > 10000 nM | CC50 at 72 h ([1]; read-out: pCC50 (converted)): > 10000 nM | EC50 ([2]; read-out: pEC50 (converted)): 490 nM

Cc1ccc(-c2cnc(C(=O)N(C)c3ccc(Cl)cc3)o2)cc1
CC50 at 72 h ([1]; read-out: CC50): > 10000 nM | CC50 at 72 h ([1]; read-out: pCC50 (converted)): > 10000 nM | EC50 ([2]; read-out: pEC50 (converted)): 676 nM

CC(C)c1ccc(-n2cnc(C(=O)N(C)c3ccc(Cl)cc3)n2)cc1
CC50 at 72 h ([1]; read-out: CC50): > 10000 nM | CC50 at 72 h ([1]; read-out: pCC50 (converted)): > 10000 nM | EC50 ([2]; read-out: pEC50 (converted)): 851 nM

CCc1ccc(-n2cnc(C(=O)N(C)c3ccc(OC)cc3)n2)cc1
CC50 at 72 h ([1]; read-out: CC50): > 10000 nM | CC50 at 72 h ([1]; read-out: pCC50 (converted)): > 10000 nM | EC50 ([2]; read-out: pEC50 (converted)): 933 nM

CCc1ccc(-n2cnc(C(=O)N(C)c3ccc(C)c(C)c3)n2)cc1
CC50 at 72 h ([1]; read-out: CC50): > 10000 nM | CC50 at 72 h ([1]; read-out: pCC50 (converted)): > 10000 nM | EC50 ([2]; read-out: pEC50 (converted)): 2000 nM

Cc1ccc(-c2cncc(C(=O)N(C)c3ccc(Cl)cc3)c2)cc1
CLH(app) [3]: > 92.4 µL/min | microsomal CLint [4]: 228 µL/min/mg | half-life [5]: 6.1 min | half-life [6]: < 7.5 min | CC50 at 72 h ([1]; read-out: CC50): > 10000 nM | CC50 at 72 h ([1]; read-out: pCC50 (converted)): > 10000 nM | logD [7]: 4.32

O=C(Nc1ncn(-c2ccc(Cl)cc2)n1)c1ccc(Cl)cc1
CC50 at 72 h ([1]; read-out: CC50): > 10000 nM | CC50 at 72 h ([1]; read-out: pCC50 (converted)): > 10000 nM | EC50 ([2]; read-out: pEC50 (converted)): 3090 nM

Cc1ccc(C(=O)N(C)c2ncn(-c3ccc(Cl)cc3)n2)cc1
CC50 at 72 h ([1]; read-out: CC50): > 10000 nM | CC50 at 72 h ([1]; read-out: pCC50 (converted)): > 10000 nM | EC50 ([2]; read-out: pEC50 (converted)): 4270 nM

Cc1ccc(C(=O)Nc2ncn(-c3ccc(C)cc3)n2)cc1
CC50 at 72 h ([1]; read-out: CC50): > 10000 nM | CC50 at 72 h ([1]; read-out: pCC50 (converted)): > 10000 nM | EC50 ([2]; read-out: pEC50 (converted)): 2510 nM

CCc1ccc(-n2cnc(C(=O)N(C)c3ccc(Cl)cc3)n2)cc1
CC50 at 72 h ([1]; read-out: CC50): > 10000 nM | CC50 at 72 h ([1]; read-out: pCC50 (converted)): > 10000 nM | EC50 ([2]; read-out: pEC50 (converted)): 617 nM

CCc1ccc(-n2cnc(C(=O)N(C)c3ccc(C)cc3)n2)cc1
CC50 at 72 h ([1]; read-out: CC50): > 10000 nM | CC50 at 72 h ([1]; read-out: pCC50 (converted)): > 10000 nM | EC50 ([2]; read-out: pEC50 (converted)): 575 nM

COc1ccc(-n2cnc(C(=O)N(C)c3ccc(C)cc3)n2)cc1
CC50 at 72 h ([1]; read-out: CC50): > 10000 nM | CC50 at 72 h ([1]; read-out: pCC50 (converted)): > 10000 nM | EC50 ([2]; read-out: pEC50 (converted)): 5750 nM

Cc1ccc(-c2ncc(C(=O)N(C)c3ccc(Cl)cc3)[nH]2)cc1
CC50 at 72 h ([1]; read-out: CC50): > 10000 nM | CC50 at 72 h ([1]; read-out: pCC50 (converted)): > 10000 nM | EC50 ([2]; read-out: pEC50 (converted)): 3390 nM

CN(C(=O)c1ncc(-c2ccc(Cl)cc2)o1)c1ccc(Cl)cc1
EC50 ([8]; read-out: EC50): 281 nM | EC50 ([8]; read-out: pEC50 (converted)): 282 nM | EC50 ([9]; read-out: EC50): 840 nM | EC50 ([9]; read-out: pEC50 (converted)): 832 nM | EC50 ([10]; read-out: EC50): 168 nM | EC50 ([10]; read-out: pEC50 (converted)): 166 nM | EC50 ([11]; read-out: EC50): 502 nM | EC50 ([11]; read-out: pEC50 (converted)): 501 nM | EC50 ([2]; read-out: EC50): 170 nM | EC50 ([2]; read-out: pEC50 (converted)): 170 nM

Cc1ccc(N(C)C(=O)c2ncn(-c3ccc(C)cc3)n2)cc1
CLH(app) [3]: > 92.4 µL/min | microsomal CLint [4]: 125 µL/min/mg | half-life [5]: 11.1 min | half-life [6]: < 7.5 min | CC50 at 72 h ([1]; read-out: CC50): > 10000 nM | CC50 at 72 h ([1]; read-out: pCC50 (converted)): > 10000 nM | EC50 ([2]; read-out: pEC50 (converted)): 1740 nM | logD [7]: 3.15

[2H]C([2H])([2H])N(C(=O)c1cc(-c2ccc(Cl)cc2)ccn1)c1ccc(Cl)cc1
EC50 ([8]; read-out: EC50): 199 nM | EC50 ([8]; read-out: pEC50 (converted)): 200 nM | EC50 ([9]; read-out: EC50): 608 nM | EC50 ([9]; read-out: pEC50 (converted)): 603 nM | EC50 ([10]; read-out: EC50): 104 nM | EC50 ([10]; read-out: pEC50 (converted)): 105 nM | EC50 ([11]; read-out: EC50): 588 nM | EC50 ([11]; read-out: pEC50 (converted)): 589 nM | EC50 ([2]; read-out: EC50): 198000 nM | EC50 ([2]; read-out: pEC50 (converted)): 200 nM

Cc1ccc(N(C)C(=O)c2ncn(-c3ccc(Cl)cc3)n2)cc1
CLH(app) [3]: > 92.4 µL/min | microsomal CLint [4]: 41.1 µL/min/mg | solubility [12]: 4.4 µM (≈ 1.44 µg/mL) | half-life [5]: 33.8 min | half-life [6]: < 7.5 min | CC50 at 72 h ([1]; read-out: CC50): > 10000 nM | CC50 at 72 h ([1]; read-out: pCC50 (converted)): > 10000 nM | EC50 ([2]; read-out: pEC50 (converted)): 562 nM | logD [7]: 3.36

C[C@H]1[C@@H](O)O[C@@H]2O[C@@]3(C)CC[C@H]4[C@H](C)CC[C@@H]1[C@@]24OO3 [ARTENIMOL]
EC50 ([8]; read-out: pEC50 (converted)): 2.95 nM | EC50 ([9]; read-out: pEC50 (converted)): 1.55 nM | EC50 ([10]; read-out: pEC50 (converted)): 0.178 nM | EC50 ([11]; read-out: pEC50 (converted)): 0.661 nM | EC50 ([2]; read-out: pEC50 (converted)): 0.417 nM

O=C1C(O)=C([C@H]2CC[C@H](c3ccc(Cl)cc3)CC2)C(=O)c2ccccc21 [ATOVAQUONE]
EC50 ([8]; read-out: pEC50 (converted)): 1.95 nM | EC50 ([9]; read-out: pEC50 (converted)): 0.603 nM | EC50 ([10]; read-out: pEC50 (converted)): < 1000 nM | EC50 ([11]; read-out: pEC50 (converted)): 0.851 nM | EC50 ([2]; read-out: pEC50 (converted)): 0.759 nM

COc1ccc(C[C@H](N)C(=O)N[C@H]2[C@@H](O)[C@H](n3cnc4c(N(C)C)ncnc43)O[C@@H]2CO)cc1 [PUROMYCIN]
CC50 at 72 h ([1]; read-out: pCC50 (converted)): 646 nM | EC50 ([2]; read-out: pEC50 (converted)): 63.1 nM

CCc1nc(N)nc(N)c1-c1ccc(Cl)cc1 [PYRIMETHAMINE]
Time [13]: 25.9 h
